This note sets out measurements from patent publication US20250154686A1, “COMPOUND LIBRARY” (CHUGAI SEIYAKU KABUSHIKI KAISHA, priority 2021, published 2025).

SMILES strings stand for the structures.

The experiment addresses T1, Bcl-2 protein (Recombinant Human Bcl-2 Protein) (Homo sapiens, UniProt P10415).
T1 construct: purchased Novus Biologicals NBP2-34889
The experiment in a line: AS-MS evaluation of binding of the Example 4 mixture library (1200 compounds/well) to Bcl-2, ASMS ratio (%). The method in brief: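 Affinity-selection MS: after spin-column size exclusion and organic extraction, LC/MS signals give an ASMS ratio (%), referenced to protein-free samples with and without column treatment. Binding step combined 20 μM human Bcl-2 with the 1200-compound pool at 20 nM per compound, 1 h, 23° C., dark, pH 7.4 Tris-HCl/NaCl/Tween-20/DTT.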

Setting [1] is: replicate n = 1, mixture library, value belongs to the MS peak assigned to the compound.
[2] abbreviates: replicate n = 2, mixture library, value belongs to the MS peak assigned to the compound.
[3] abbreviates: AS-MS, Example 4 mixture library, Bcl-2, replicate n = 1.
Where [4] appears, read: AS-MS, Example 4 mixture library, Bcl-2, replicate n = 2.

T1 sequence (P10415 whole entry): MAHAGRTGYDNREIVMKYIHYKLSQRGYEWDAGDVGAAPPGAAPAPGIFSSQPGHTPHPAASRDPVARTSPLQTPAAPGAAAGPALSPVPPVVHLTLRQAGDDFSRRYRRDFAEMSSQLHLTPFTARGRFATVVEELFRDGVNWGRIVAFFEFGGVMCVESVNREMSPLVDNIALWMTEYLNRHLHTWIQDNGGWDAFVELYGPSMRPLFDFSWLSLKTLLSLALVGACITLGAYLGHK

As for `CCOc1cncc(C#Cc2cc(C(=O)N3CCN(c4ccc(C(=O)NS(=O)(=O)C(C)(C)C)cc4)CC3)cc(C(F)(F)F)c2)c1` [Compound B2L042-01, N-tert-Butylsulfonyl-4-[4-[3-[2-(5-ethoxypyridin-3-yl)ethynyl]-5-(trifluoromethyl)benzoyl]piperazin-1-yl]benzamide], under setting [1], the “ASMS ratio (%) n = 1” value came to 0.0%. In addition, the “ASMS ratio (%) n = 2” value under setting [2] turned out to be 0.0%.

`CCOc1cncc(C#Cc2ccccc2CN2CCN(c3ccc(C(=O)NS(C)(=O)=O)cc3)CC2)c1` [Compound B2I070-01, 4-[4-[[2-[2-(5-Ethoxypyridin-3-yl)ethynyl]phenyl]methyl]piperazin-1-yl]-N-methylsulfonylbenzamide]: the “ASMS ratio (%) n = 2” value under setting [2] was found to be 0.0%. On to `CCOc1cccc(-c2ccc(C(=O)N3CCN(c4ccc(C(=O)NS(=O)(=O)CCC(F)(F)F)nn4)CC3)cc2C)c1` [Compound B2N003-01, 6-[4-[4-(3-Ethoxyphenyl)-3-methylbenzoyl]piperazin-1-yl]-N-(3,3,3-trifluoropropylsulfonyl)pyridazine-3-carboxamide], for which the “ASMS ratio (%) n = 1” value under setting [3] was determined as 0.0%. Moreover, the “ASMS ratio (%) n = 2” value under setting [4] was 0.0%.

As for `CCOc1cccc(-c2ccccc2CCC(=O)N2CCN(c3ccc(C(=O)NS(=O)(=O)CCC(F)(F)F)cc3)CC2)c1` [Compound B2N033-01, 4-[4-[3-[2-(3-Ethoxyphenyl)phenyl]propanoyl]piperazin-1-yl]-N-(3,3,3-trifluoropropylsulfonyl)benzamide], under setting [3], the “ASMS ratio (%) n = 1” value is reported as 0.0%. Also, under setting [4], the “ASMS ratio (%) n = 2” value is 0.0%. For `CCOc1cccc(C#Cc2ccccc2CN2CCN(c3ccc(C(=O)NS(=O)(=O)c4ccc(NCCSc5ccccc5)c(C(F)(F)F)c4)cc3)CC2)c1` [Compound B2R069-01, 4-[4-[[2-[2-(3-Ethoxyphenyl)ethynyl]phenyl]methyl]piperazin-1-yl]-N-[4-(2-phenylsulfanylethylamino)-3-(trifluoromethyl)phenyl]sulfonylbenzamide], the “ASMS ratio (%) n = 1” value under setting [3] is on record as 12.3%. In addition, under setting [4], the “ASMS ratio (%) n = 2” value is recorded as −18.5%.

As for `CCOc1cncc(-c2cc(C(=O)N3CCN(c4ccc(C(=O)NS(=O)(=O)c5ccc(NCCSc6ccccc6)c(C(F)(F)F)c5)cc4)CC3)cc(C(F)(F)F)c2)c1` [Compound B2R040-01, 4-[4-[3-(5-Ethoxypyridin-3-yl)-5-(trifluoromethyl)benzoyl]piperazin-1-yl]-N-[4-(2-phenylsulfanylethylamino)-3-(trifluoromethyl)phenyl]sulfonylbenzamide], under setting [3], the “ASMS ratio (%) n = 1” value stood at 2.6%. Besides, under setting [4], the “ASMS ratio (%) n = 2” value is given as 0.2%. Regarding `CCOc1cncc(C#Cc2cc(C(=O)N3CCN(c4ccc(C(=O)NS(=O)(=O)c5ccc(NCCSc6ccccc6)c(C(F)(F)F)c5)nn4)CC3)cc(C(F)(F)F)c2)c1` [Compound B2R020-01, 6-[4-[3-[2-(5-Ethoxypyridin-3-yl)ethynyl]-5-(trifluoromethyl)benzoyl]piperazin-1-yl]-N-[4-(2-phenylsulfanylethylamino)-3-(trifluoromethyl)phenyl]sulfonylpyridazine-3-carboxamide], the “ASMS ratio (%) n = 1” value under setting [3] came out at 10.8%. In addition, the “ASMS ratio (%) n = 2” value under setting [4] is −17.7%.

With `CCOc1cccc(-c2cc(CN3CCN(c4ccc(C(=O)NS(=O)(=O)C(C)(C)C)cc4)CC3)cc(OC(C)C)c2)c1` [Compound B2L057-01, N-tert-Butylsulfonyl-4-[4-[3-(3-ethoxyphenyl)-5-propan-2-yloxyphenylmethyl]piperazin-1-yl]benzamide], the “ASMS ratio (%) n = 1” value under setting [1] is on record as 0.0%. The “ASMS ratio (%) n = 2” value under setting [2] is given as 0.0%.

As to `CCOc1cccc(-c2cc(CN3CCN(c4ccc(C(=O)NS(=O)(=O)CCC(F)(F)F)nn4)CC3)cc(OC(F)(F)F)c2)c1` [Compound B2N089-01, 6-[4-[[3-(3-Ethoxyphenyl)-5-(trifluoromethoxy)phenyl]methyl]piperazin-1-yl]-N-(3,3,3-trifluoropropylsulfonyl)pyridazine-3-carboxamide], the “ASMS ratio (%) n = 2” value under setting [4] is 0.0%. As to `CCOc1cccc(-c2cc(CN3CCN(c4ccc(C(=O)NS(=O)(=O)CCC(F)(F)F)cc4)CC3)cc(OC(C)C)c2)c1` [Compound B2N057-01, 4-[4-[[3-(3-Ethoxyphenyl)-5-propan-2-yloxyphenyl]methyl]piperazin-1-yl]-N-(3,3,3-trifluoropropylsulfonyl)benzamide], the “ASMS ratio (%) n = 1” value under setting [3] stood at 0.0%. In addition, under setting [4], the “ASMS ratio (%) n = 2” value is on record as −1.8%. Regarding `CCOc1cccc(-c2cc(CN3CCN(c4ccc(C(=O)NS(=O)(=O)C(C)(C)C)nn4)CC3)cc(OC(C)C)c2)c1` [Compound B2L083-01], under setting [3], the “ASMS ratio (%) n = 1” value is on record as 0.0%. Also, under setting [4], the “ASMS ratio (%) n = 2” value is on record as 0.0%. With `CCOc1cncc(-c2cc(CN3CCN(c4ccc(C(=O)NS(=O)(=O)CCC(F)(F)F)nn4)CC3)cc(OCC)c2)c1` [Compound B2N082-01, 6-[4-[[3-Ethoxy-5-(5-ethoxypyridin-3-yl)phenyl]methyl]piperazin-1-yl]-N-(3,3,3-trifluoropropylsulfonyl)pyridazine-3-carboxamide], the “ASMS ratio (%) n = 1” value under setting [3] is listed as 2.5%. Also, under setting [4], the “ASMS ratio (%) n = 2” value is 2.8%. On the same counts, the results for `CCOc1cncc(-c2ccc(CN3CCN(c4ccc(C(=O)NS(=O)(=O)CCC(F)(F)F)cc4)CC3)cc2C)c1` [Compound B2N048-01, 4-[4-[[4-(5-Ethoxypyridin-3-yl)-3-methylphenyl]methyl]piperazin-1-yl]-N-(3,3,3-trifluoropropylsulfonyl)benzamide] are 0.0% and −0.7%. As to `CCCNC(=O)c1ccc(N2CCN(Cc3ccc(-c4cncc(OCC)c4)c(C)c3)CC2)nn1` [Compound B1M074-01], the “ASMS ratio (%) n = 1” value (AS-MS, mixture of 1200 compounds/well, Bcl-2 protein, replicate n = 1) was −1.6%. Further, the “ASMS ratio (%) n = 2” value (AS-MS, mixture of 1200 compounds/well, Bcl-2 protein, replicate n = 2) amounted to 0.9%. In the case of `CCOc1cncc(-c2ccc(CN3CCN(c4ccc(C(=O)NS(=O)(=O)c5ccc(NCCSc6ccccc6)c(C(F)(F)F)c5)cc4)CC3)cc2F)c1` [Compound B2R052-01, 4-[4-[[4-(5-Ethoxypyridin-3-yl)-3-fluorophenyl]methyl]piperazin-1-yl]-N-[4-(2-phenylsulfanylethylamino)-3-(trifluoromethyl)phenyl]sulfonylbenzamide], the “ASMS ratio (%) n = 1” value under setting [3] is recorded as 0.0%. The “ASMS ratio (%) n = 2” value under setting [4] was −7.4%. With `CCOc1cccc(-c2cc(C(=O)N3CCN(c4ccc(C(=O)NS(=O)(=O)c5ccc(NCCSc6ccccc6)c(C(F)(F)F)c5)nn4)CC3)cc(C(F)(F)F)c2)c1` [Compound B2R017-01, 6-[4-[3-(3-Ethoxyphenyl)-5-(trifluoromethyl)benzoyl]piperazin-1-yl]-N-[4-(2-phenylsulfanylethylamino)-3-(trifluoromethyl)phenyl]sulfonylpyridazine-3-carboxamide], under setting [3], the “ASMS ratio (%) n = 1” value is reported as 32.9%. Further, the “ASMS ratio (%) n = 2” value under setting [4] is listed as 27.2%.

On to `CCOc1cncc(-c2ccc(CN3CCN(c4ccc(C(=O)NS(=O)(=O)C(C)(C)C)cc4)CC3)c(OC)c2)c1` [Compound B2L054-01], for which the “ASMS ratio (%) n = 1” value under setting [1] is listed as 0.0%. Further, the “ASMS ratio (%) n = 2” value under setting [2] was determined as 0.0%. For the molecule `CCOc1cccc(-c2cc(OC)c(CN3CCN(c4ccc(C(=O)NS(=O)(=O)c5ccc(NCCSc6ccccc6)c(C(F)(F)F)c5)cc4)CC3)c(OC)c2)c1` [Compound B2R059-01, 4-[4-[[4-(3-Ethoxyphenyl)-2,6-dimethoxyphenyl]methyl]piperazin-1-yl]-N-[4-(2-phenylsulfanylethylamino)-3-(trifluoromethyl)phenyl]sulfonylbenzamide], the “ASMS ratio (%) n = 1” value under setting [3] is 0.0%. For the same molecule, the “ASMS ratio (%) n = 2” value under setting [4] was determined as 0.0%.

For `CCOc1cccc(-c2ccccc2CN2CCN(c3ccc(C(=O)NS(=O)(=O)CCC(F)(F)F)nn3)CC2)c1` [Compound B2N071-01, 6-[4-[[2-(3-Ethoxyphenyl)phenyl]methyl]piperazin-1-yl]-N-(3,3,3-trifluoropropylsulfonyl)pyridazine-3-carboxamide], the “ASMS ratio (%) n = 1” value under setting [3] came out at 0.0%. Besides, the “ASMS ratio (%) n = 2” value under setting [4] was 0.0%. Take `CCOc1cncc(-c2cnn(-c3cc(C(=O)N4CCN(c5ccc(C(=O)NS(=O)(=O)C(C)(C)C)cc5)CC4)cc(C(F)(F)F)c3)c2)c1` [Compound B2L044-01, N-tert-Butylsulfonyl-4-[4-[3-[4-(5-ethoxypyridin-3-yl)pyrazol-1-yl]-5-(trifluoromethyl)benzoyl]piperazin-1-yl]benzamide]: the “ASMS ratio (%) n = 1” value under setting [1] turned out to be 0.0%. Besides, the “ASMS ratio (%) n = 2” value under setting [2] came to 0.0%. As to `CCOc1cncc(C#Cc2cc(C(=O)N3CCN(c4ccc(C(=O)NS(=O)(=O)CCC(F)(F)F)cc4)CC3)cc(C(F)(F)F)c2)c1` [Compound B2N042-01, 4-[4-[3-[2-(5-Ethoxypyridin-3-yl)ethynyl]-5-(trifluoromethyl)benzoyl]piperazin-1-yl]-N-(3,3,3-trifluoropropylsulfonyl)benzamide], under setting [3], the “ASMS ratio (%) n = 1” value is listed as 0.0%. The “ASMS ratio (%) n = 2” value under setting [4] amounted to 0.0%.

Turning to `CCOc1cncc(-c2ccccc2CN2CCN(c3ccc(C(=O)NS(=O)(=O)CCC(F)(F)F)cc3)CC2)c1` [Compound B2N046-01, 4-[4-[[2-(5-Ethoxypyridin-3-yl)phenyl]methyl]piperazin-1-yl]-N-(3,3,3-trifluoropropylsulfonyl)benzamide], under setting [3], the “ASMS ratio (%) n = 1” value turned out to be 0.0%. For the same molecule, the “ASMS ratio (%) n = 2” value under setting [4] was −1.2%. Taken in the same sequence, the figures for `CCOc1cccc(-c2ccccc2CN2CCN(c3ccc(C(=O)NS(=O)(=O)c4ccc(NCCSc5ccccc5)c(C(F)(F)F)c4)cc3)CC2)c1` [Compound B2R045-01, 4-[4-[[2-(3-Ethoxyphenyl)phenyl]methyl]piperazin-1-yl]-N-[4-(2-phenylsulfanylethylamino)-3-(trifluoromethyl)phenyl]sulfonylbenzamide] were 4.8% and −3.4%.
